Data on three compounds can be found in PMC8521193, “A Novel Polyphenol Oxidoreductase OhLac from Ochrobactrum sp. J10 for Lignin Degradation” (Frontiers in Microbiology, 2021).

Experiment in all cases: spectrophotometric oxidation, […] nm
What all share (type): biochemical

In assay [1] the test system is T1, OhLac.
T1 construct: full length, 837 bp ORF, 279 aa as printed, about 31 kDa; pET28a(+) NcoI/XhoI; N-terminal His6 printed (these sites would rather give a C-terminal His6); E. coli BL21(DE3), Ni-NTA; monomer
To be noted: pH 5.0, 30°C, Cu2+ 5.00 mM.

The test system of assay [2] is T1, OhLac. The note with it: pH 5.0, 40°C, Cu2+ 0.50 mM.
The subject of assay [3] is T1, OhLac. The note with it: pH 3.0, 50°C, Cu2+ 0.25 mM.

Usually Km stands for the substrate concentration at which the rate is half of its maximum. For the compound `COc1cccc(OC)c1O` [2,6-DMP], the Km with OhLac [1] is 1.13 mM. `COc1ccccc1O` [guaiacol]: in the assay with OhLac [2], the Km turned out to be 523 ± 9.2 µM.

Regarding `CCn1c(=NN=c2sc3cc(S(=O)(=O)O)ccc3n2CC)sc2cc(S(=O)(=O)O)ccc21` [ABTS], the Michaelis constant (Km) with OhLac [3] is 1.06 mM.
